Assay results published in ChEMBL document CHEMBL3352288, “Synthesis and biological evaluation of 9α- and 9β-hydroxyamino-parthenolides as novel anticancer agents” (Bioorg Med Chem Lett, 2014).

How the values were obtained:
Assay type in all cases: functional, cell-based
A549 = assay: Anticancer activity against human A549 cells assessed as growth inhibition after 72 hrs by MTT colorimetric assay; settings: A549, 72 h
Hs 683 = assay: Anticancer activity against human Hs 683 cells assessed as growth inhibition after 72 hrs by MTT colorimetric assay; settings: Hs 683, 72 h
MCF7 = assay: Anticancer activity against human MCF7 cells assessed as growth inhibition after 72 hrs by MTT assay; settings: MCF7, 72 h
SK-MEL-28 = assay: Anticancer activity against human SK-MEL-28 cells assessed as growth inhibition after 72 hrs by MTT assay; settings: SK-MEL-28, 72 h
T98G = assay: Anticancer activity against human T98G cells assessed as growth inhibition after 72 hrs by MTT assay
[1] = Anticancer activity against mouse B16F10 cells assessed as growth inhibition after 72 hrs by MTT colorimetric assay; settings: B16-F10, 72 h
[2] = Anticancer activity against human Glioma cells assessed as growth inhibition after 72 hrs by MTT assay

Row | Structure (SMILES) | IC50 (A549) [µM] | IC50 (MCF7) [µM] | IC50 (SK-MEL-28) [µM] | IC50 (Hs 683) [µM] | IC50 (T98G) [µM] | IC50 [1] [µM] | IC50 [2] [µM]
1 | C/C1=C\CC[C@@]2(C)O[C@@H]2[C@H]2OC(=O)[C@@H](CN3CCN(C)CC3)[C@@H]2C[C@@H]1O | 25 | 22 | 23 | 22 | 23 | 9 | 
2 | C[C@]12O[C@@H]1CC[C@@]1(C)O[C@@H]1[C@H]1OC(=O)[C@@H](CN3CCN(c4ccccc4)CC3)[C@@H]1C[C@H]2O | 48 | 59 | 51 | 31 |  | 22 | 35
3 | C/C1=C\CC[C@@]2(C)O[C@@H]2[C@H]2OC(=O)[C@@H](CN3CCCC3)[C@@H]2C[C@H]1O | 10 | 21 | 19 | 15 |  | 4 | 5
4 | C/C1=C\CC[C@@]2(C)O[C@@H]2[C@H]2OC(=O)[C@@H](CN3CCCCC3)[C@@H]2C[C@H]1O | 18 | 16 | 16 | 7 |  | 4 | 4
5 | C/C1=C\CC[C@@]2(C)O[C@@H]2[C@H]2OC(=O)[C@@H](CN3CCCCC3)[C@@H]2C[C@@H]1O | 6 | 8 | 10 | 7 | 17 | 6 | 
6 | C/C1=C\CC[C@@]2(C)O[C@@H]2[C@H]2OC(=O)[C@@H](CN3CCN(c4ccccc4F)CC3)[C@@H]2C[C@H]1O | 22 | 24 | 25 | 25 |  | 6 | 6
7 | C[C@]12O[C@@H]1CC[C@@]1(C)O[C@@H]1[C@H]1OC(=O)[C@@H](CN3CCOCC3)[C@@H]1C[C@H]2O | 23 | 24 | 22 | 24 |  | 9 | 12
8 | C=C1C(=O)O[C@H]2[C@H]1C[C@@H](O)/C(C)=C/CC[C@@]1(C)O[C@@H]21 | 7 | 6 | 9 | 7 | 11 | 4 | 
9 | C/C1=C\CC[C@@]2(C)O[C@@H]2[C@H]2OC(=O)[C@@H](CN3CCN(c4ccccc4)CC3)[C@@H]2C[C@H]1O | 17 | 19 | 19 | 22 |  | 6 | 5
10 | C[C@]12O[C@@H]1CC[C@@]1(C)O[C@@H]1[C@H]1OC(=O)[C@@H](CN3CCCCC3)[C@@H]1C[C@H]2O | 90 | 74 | 84 | 67 |  | 46 | 59
11 | C[C@]12O[C@@H]1CC[C@@]1(C)O[C@@H]1[C@H]1OC(=O)[C@@H](CN3CCN(c4ccccc4F)CC3)[C@@H]1C[C@H]2O | 22 | 20 | 17 | 18 |  | 5 | 8

Continued, in another order:

Row | IC50 (A549) [µM] | IC50 (MCF7) [µM] | IC50 (SK-MEL-28) [µM] | Structure (SMILES) | IC50 (Hs 683) [µM] | IC50 (T98G) [µM] | IC50 [1] [µM] | IC50 [2] [µM]
12 | 25 | 24 | 22 | C/C1=C\CC[C@@]2(C)O[C@@H]2[C@H]2OC(=O)[C@@H](CN3CCOCC3)[C@@H]2C[C@H]1O | 22 |  | 5 | 5
13 | 9 | 18 | 23 | C/C1=C\CC[C@@]2(C)O[C@@H]2[C@H]2OC(=O)[C@@H](CN3CCCC3)[C@@H]2C[C@@H]1O | 10 | 15 | 7 | 
14 | 30 | 33 | 57 | C/C1=C\CC[C@@]2(C)O[C@@H]2[C@H]2OC(=O)[C@@H](CN3CCN(C)CC3)[C@@H]2C[C@H]1O | 33 |  | 25 | 36
15 | 28 | 29 | 31 | C[C@]12O[C@@H]1CC[C@@]1(C)O[C@@H]1[C@H]1OC(=O)[C@@H](CN3CCN(c4ccc(Cl)cc4)CC3)[C@@H]1C[C@H]2O |  | 16 | 19 | 
16 | 26 | 24 | 25 | COc1ccc(N2CCN(C[C@@H]3C(=O)O[C@H]4[C@H]3C[C@@H](O)/C(C)=C/CC[C@@]3(C)O[C@H]43)CC2)cc1 | 22 |  | 14 | 18
17 | 24 | 23 | 25 | C=C1C(=O)O[C@H]2[C@H]1C[C@H](O)/C(C)=C/CC[C@@]1(C)O[C@@H]21 | 25 | 25 | 15 | 
18 | 8 | 14 | 19 | C/C1=C\CC[C@@]2(C)O[C@@H]2[C@H]2OC(=O)[C@@H](CN(C)CCN(C)C)[C@@H]2C[C@H]1O | 9 |  | 4 | 16
